# Source: ChEMBL document CHEMBL5724914, “Linking interpersonal differences in gut microbiota composition and drug biotransformation activity” (2024)
# Columns and labels:
# [1] = human gut metagenome, 24 h, 2 µM
# [2] = The drug is tested on Z-005 corresponding to metagenome with ENA study accession number: PRJEB37062 and ENA sample accession number: ERS12561805 for biotransformation under anaerobic condition. The drug concentrations were measured over 9 timepoints collected between 0 and 24 hours of incubation by liquid-chromatography-coupled mass spectrometry (LC–MS); conditions: 2 µM
# [3] = (§1) The drug is tested on Z-009 corresponding to pig gut metagenome with ENA study accession number: PRJEB37062 and ENA sample accession number: ERS12561809 for biotransformation under anaerobic condition. The drug concentrations were measured over 9 timepoints collected between 0 and 24 hours of incubation by liquid-chromatography-coupled mass spectrometry (LC–MS); conditions: 2 µM
# [4] = human gut metagenome, 24 h, 2 µM; remark: listed apart in the source
# [5] = human gut metagenome, 24 h, 2 µM; remark: listed apart in the source
# [6] = human gut metagenome, 24 h, 2 µM; remark: listed apart in the source
# [7] = human gut metagenome, 24 h, 2 µM; remark: listed apart in the source
# [8] = as §1, with “WLS-098” for “Z-009”, “human” for “pig”, “ERS12561754” for “ERS12561809”; conditions: 2 µM
# [9] = human gut metagenome, 24 h, 2 µM; remark: listed apart in the source
# [10] = as §1, with “WLS-038” for “Z-009”, “human” for “pig”, “ERS12561745” for “ERS12561809”; conditions: 2 µM
# [11] = human gut metagenome, 24 h, 2 µM; remark: listed apart in the source
# [12] = human gut metagenome, 24 h, 2 µM; remark: listed apart in the source
# [13] = human gut metagenome, 24 h, 2 µM; remark: listed apart in the source
# [14] = as §1, with “WLS-090” for “Z-009”, “human” for “pig”, “ERS12561753” for “ERS12561809”; conditions: 2 µM
# [15] = as §1, with “Z-020” for “Z-009”, “rabbit” for “pig”, “ERS12561819” for “ERS12561809”; conditions: 2 µM
# [16] = human gut metagenome, 24 h, 2 µM; remark: listed apart in the source
# [17] = human gut metagenome, 24 h, 2 µM; remark: listed apart in the source
# [18] = as §1, with “Z-003” for “Z-009”, “ERS12561803” for “ERS12561809”; conditions: 2 µM
# [19] = human gut metagenome, 24 h, 2 µM; remark: listed apart in the source
# [20] = as §1, with “WLS-370” for “Z-009”, “human” for “pig”, “ERS12561793” for “ERS12561809”; conditions: 2 µM
# Note: call rule not given here.
smiles,measurement,setting,value
Nc1nnc(-c2cccc(Cl)c2Cl)c(N)n1 [LAMOTRIGINE],Bacterial Biotransformation,[1],Compound NOT metabolized
same,Bacterial Biotransformation,[2],Compound NOT metabolized
same,Bacterial Biotransformation,[3],Compound NOT metabolized
same,Bacterial Biotransformation,[4],Compound NOT metabolized
same,Bacterial Biotransformation,[5],Compound NOT metabolized
same,Bacterial Biotransformation,[6],Compound NOT metabolized
same,Bacterial Biotransformation,[7],Compound NOT metabolized
same,Bacterial Biotransformation,[8],Compound metabolized
same,Bacterial Biotransformation,[9],Compound metabolized
same,Bacterial Biotransformation,[10],Compound NOT metabolized
same,Bacterial Biotransformation,[11],Compound NOT metabolized
same,Bacterial Biotransformation,[12],Compound metabolized
same,Bacterial Biotransformation,[13],Compound NOT metabolized
same,Bacterial Biotransformation,[14],Compound metabolized
same,Bacterial Biotransformation,[15],Compound NOT metabolized
same,Bacterial Biotransformation,[16],Compound metabolized
same,Bacterial Biotransformation,[17],Compound NOT metabolized
same,Bacterial Biotransformation,[18],Compound NOT metabolized
same,Bacterial Biotransformation,[19],Compound NOT metabolized
same,Bacterial Biotransformation,[20],Compound NOT metabolized
OC(c1cc(C(F)(F)F)nc2c(C(F)(F)F)cccc12)C1CCCCN1 (stereo not given) [MEFLOQUINE],Bacterial Biotransformation,[1],Compound NOT metabolized
same,Bacterial Biotransformation,[2],Compound NOT metabolized
same,Bacterial Biotransformation,[3],Compound metabolized
same,Bacterial Biotransformation,[4],Compound metabolized
same,Bacterial Biotransformation,[5],Compound NOT metabolized
same,Bacterial Biotransformation,[6],Compound metabolized
same,Bacterial Biotransformation,[7],Compound metabolized
same,Bacterial Biotransformation,[8],Compound NOT metabolized
same,Bacterial Biotransformation,[9],Compound metabolized
same,Bacterial Biotransformation,[10],Compound metabolized
same,Bacterial Biotransformation,[11],Compound NOT metabolized
same,Bacterial Biotransformation,[12],Compound metabolized
same,Bacterial Biotransformation,[13],Compound metabolized
same,Bacterial Biotransformation,[14],Compound metabolized
same,Bacterial Biotransformation,[15],Compound metabolized
same,Bacterial Biotransformation,[16],Compound metabolized
same,Bacterial Biotransformation,[17],Compound metabolized
same,Bacterial Biotransformation,[18],Compound metabolized
same,Bacterial Biotransformation,[19],Compound NOT metabolized
same,Bacterial Biotransformation,[20],Compound metabolized
CC(=O)O[C@]1(C(C)=O)CC[C@H]2[C@@H]3C=C(C)C4=CC(=O)CC[C@]4(C)[C@H]3CC[C@@]21C [MEGESTROL ACETATE],Bacterial Biotransformation,[1],Compound metabolized
same,Bacterial Biotransformation,[2],Compound metabolized
same,Bacterial Biotransformation,[3],Compound metabolized
same,Bacterial Biotransformation,[4],Compound metabolized
same,Bacterial Biotransformation,[5],Compound metabolized
same,Bacterial Biotransformation,[6],Compound metabolized
same,Bacterial Biotransformation,[7],Compound metabolized
same,Bacterial Biotransformation,[8],Compound metabolized
same,Bacterial Biotransformation,[9],Compound metabolized
same,Bacterial Biotransformation,[10],Compound metabolized
same,Bacterial Biotransformation,[11],Compound metabolized
same,Bacterial Biotransformation,[12],Compound NOT metabolized
same,Bacterial Biotransformation,[13],Compound metabolized
same,Bacterial Biotransformation,[14],Compound metabolized
same,Bacterial Biotransformation,[15],Compound metabolized
same,Bacterial Biotransformation,[16],Compound metabolized
same,Bacterial Biotransformation,[17],Compound metabolized
same,Bacterial Biotransformation,[18],Compound metabolized
same,Bacterial Biotransformation,[19],Compound metabolized
same,Bacterial Biotransformation,[20],Compound metabolized
CC12CC3CC(C)(C1)CC(N)(C3)C2 [MEMANTINE],Bacterial Biotransformation,[1],Compound NOT metabolized
same,Bacterial Biotransformation,[2],Compound NOT metabolized
same,Bacterial Biotransformation,[3],Compound NOT metabolized
same,Bacterial Biotransformation,[4],Compound NOT metabolized
same,Bacterial Biotransformation,[5],Compound NOT metabolized
same,Bacterial Biotransformation,[6],Compound NOT metabolized
same,Bacterial Biotransformation,[7],Compound NOT metabolized
same,Bacterial Biotransformation,[8],Compound NOT metabolized
same,Bacterial Biotransformation,[9],Compound NOT metabolized
same,Bacterial Biotransformation,[10],Compound NOT metabolized
same,Bacterial Biotransformation,[11],Compound NOT metabolized
same,Bacterial Biotransformation,[12],Compound NOT metabolized
same,Bacterial Biotransformation,[13],Compound NOT metabolized
same,Bacterial Biotransformation,[14],Compound metabolized
same,Bacterial Biotransformation,[15],Compound NOT metabolized
same,Bacterial Biotransformation,[16],Compound metabolized
same,Bacterial Biotransformation,[17],Compound NOT metabolized
same,Bacterial Biotransformation,[18],Compound NOT metabolized
same,Bacterial Biotransformation,[19],Compound NOT metabolized
same,Bacterial Biotransformation,[20],Compound NOT metabolized
Cc1cc(C)cc(OCC2CNC(=O)O2)c1 (stereo not given) [METAXALONE],Bacterial Biotransformation,[1],Compound metabolized
same,Bacterial Biotransformation,[2],Compound NOT metabolized
same,Bacterial Biotransformation,[3],Compound NOT metabolized
same,Bacterial Biotransformation,[4],Compound metabolized
same,Bacterial Biotransformation,[5],Compound metabolized
same,Bacterial Biotransformation,[6],Compound metabolized
same,Bacterial Biotransformation,[7],Compound metabolized
same,Bacterial Biotransformation,[8],Compound metabolized
same,Bacterial Biotransformation,[9],Compound metabolized
same,Bacterial Biotransformation,[10],Compound metabolized
same,Bacterial Biotransformation,[11],Compound metabolized
same,Bacterial Biotransformation,[12],Compound NOT metabolized
same,Bacterial Biotransformation,[13],Compound metabolized
same,Bacterial Biotransformation,[14],Compound metabolized
same,Bacterial Biotransformation,[15],Compound NOT metabolized
same,Bacterial Biotransformation,[16],Compound metabolized
same,Bacterial Biotransformation,[17],Compound metabolized
same,Bacterial Biotransformation,[18],Compound NOT metabolized
same,Bacterial Biotransformation,[19],Compound NOT metabolized
same,Bacterial Biotransformation,[20],Compound metabolized
COC(=O)C(c1ccccc1)C1CCCCN1 (stereo not given) [METHYLPHENIDATE],Bacterial Biotransformation,[1],Compound NOT metabolized
same,Bacterial Biotransformation,[2],Compound NOT metabolized
same,Bacterial Biotransformation,[3],Compound metabolized
same,Bacterial Biotransformation,[4],Compound NOT metabolized
same,Bacterial Biotransformation,[5],Compound metabolized
same,Bacterial Biotransformation,[6],Compound NOT metabolized
same,Bacterial Biotransformation,[7],Compound NOT metabolized
same,Bacterial Biotransformation,[8],Compound NOT metabolized
same,Bacterial Biotransformation,[9],Compound metabolized
same,Bacterial Biotransformation,[10],Compound NOT metabolized
same,Bacterial Biotransformation,[11],Compound NOT metabolized
same,Bacterial Biotransformation,[12],Compound NOT metabolized
same,Bacterial Biotransformation,[13],Compound NOT metabolized
same,Bacterial Biotransformation,[14],Compound metabolized
same,Bacterial Biotransformation,[15],Compound NOT metabolized
same,Bacterial Biotransformation,[16],Compound metabolized
same,Bacterial Biotransformation,[17],Compound metabolized
same,Bacterial Biotransformation,[18],Compound metabolized
same,Bacterial Biotransformation,[19],Compound NOT metabolized
same,Bacterial Biotransformation,[20],Compound NOT metabolized
CN1CCN2c3ccccc3Cc3ccccc3C2C1 (stereo not given) [MIANSERIN],Bacterial Biotransformation,[1],Compound NOT metabolized
same,Bacterial Biotransformation,[2],Compound NOT metabolized
same,Bacterial Biotransformation,[3],Compound metabolized
same,Bacterial Biotransformation,[4],Compound NOT metabolized
same,Bacterial Biotransformation,[5],Compound NOT metabolized
same,Bacterial Biotransformation,[6],Compound NOT metabolized
same,Bacterial Biotransformation,[7],Compound NOT metabolized
same,Bacterial Biotransformation,[8],Compound metabolized
same,Bacterial Biotransformation,[9],Compound metabolized
same,Bacterial Biotransformation,[10],Compound NOT metabolized
same,Bacterial Biotransformation,[11],Compound NOT metabolized
same,Bacterial Biotransformation,[12],Compound NOT metabolized
same,Bacterial Biotransformation,[13],Compound NOT metabolized
same,Bacterial Biotransformation,[14],Compound metabolized
same,Bacterial Biotransformation,[15],Compound NOT metabolized
same,Bacterial Biotransformation,[16],Compound metabolized
same,Bacterial Biotransformation,[17],Compound metabolized
same,Bacterial Biotransformation,[18],Compound metabolized
same,Bacterial Biotransformation,[19],Compound NOT metabolized
same,Bacterial Biotransformation,[20],Compound NOT metabolized
CC#C[C@]1(O)CC[C@H]2[C@@H]3CCC4=CC(=O)CCC4=C3[C@@H](c3ccc(N(C)C)cc3)C[C@@]21C [MIFEPRISTONE],Bacterial Biotransformation,[1],Compound NOT metabolized
same,Bacterial Biotransformation,[2],Compound metabolized
same,Bacterial Biotransformation,[3],Compound metabolized
same,Bacterial Biotransformation,[4],Compound metabolized
same,Bacterial Biotransformation,[5],Compound NOT metabolized
same,Bacterial Biotransformation,[6],Compound NOT metabolized
same,Bacterial Biotransformation,[7],Compound NOT metabolized
same,Bacterial Biotransformation,[8],Compound NOT metabolized
same,Bacterial Biotransformation,[9],Compound metabolized
same,Bacterial Biotransformation,[10],Compound metabolized
same,Bacterial Biotransformation,[11],Compound metabolized
same,Bacterial Biotransformation,[12],Compound metabolized
same,Bacterial Biotransformation,[13],Compound metabolized
same,Bacterial Biotransformation,[14],Compound metabolized
same,Bacterial Biotransformation,[15],Compound metabolized
same,Bacterial Biotransformation,[16],Compound metabolized
same,Bacterial Biotransformation,[17],Compound NOT metabolized
same,Bacterial Biotransformation,[18],Compound metabolized
same,Bacterial Biotransformation,[19],Compound NOT metabolized
same,Bacterial Biotransformation,[20],Compound NOT metabolized
CC(C)(C)NCC(O)COc1cccc2c1CC(O)C(O)C2 (stereo not given) [NADOLOL],Bacterial Biotransformation,[1],Compound NOT metabolized
same,Bacterial Biotransformation,[2],Compound NOT metabolized
same,Bacterial Biotransformation,[3],Compound metabolized
same,Bacterial Biotransformation,[4],Compound metabolized
same,Bacterial Biotransformation,[5],Compound metabolized
same,Bacterial Biotransformation,[6],Compound NOT metabolized
same,Bacterial Biotransformation,[7],Compound NOT metabolized
same,Bacterial Biotransformation,[8],Compound metabolized
same,Bacterial Biotransformation,[9],Compound metabolized
same,Bacterial Biotransformation,[10],Compound NOT metabolized
same,Bacterial Biotransformation,[11],Compound NOT metabolized
same,Bacterial Biotransformation,[12],Compound NOT metabolized
same,Bacterial Biotransformation,[13],Compound NOT metabolized
same,Bacterial Biotransformation,[14],Compound metabolized
same,Bacterial Biotransformation,[15],Compound NOT metabolized
same,Bacterial Biotransformation,[16],Compound metabolized
same,Bacterial Biotransformation,[17],Compound NOT metabolized
same,Bacterial Biotransformation,[18],Compound metabolized
same,Bacterial Biotransformation,[19],Compound NOT metabolized
same,Bacterial Biotransformation,[20],Compound NOT metabolized
